The target of one series is T1, FL-AR^WT (Homo sapiens, UniProt P10275).
T1 construct: toward full-length (FL)-AR^WT and FL-AR^V684A; expressed in transfected cells; host or cells: PC3
T1 sequence (P10275 1-920): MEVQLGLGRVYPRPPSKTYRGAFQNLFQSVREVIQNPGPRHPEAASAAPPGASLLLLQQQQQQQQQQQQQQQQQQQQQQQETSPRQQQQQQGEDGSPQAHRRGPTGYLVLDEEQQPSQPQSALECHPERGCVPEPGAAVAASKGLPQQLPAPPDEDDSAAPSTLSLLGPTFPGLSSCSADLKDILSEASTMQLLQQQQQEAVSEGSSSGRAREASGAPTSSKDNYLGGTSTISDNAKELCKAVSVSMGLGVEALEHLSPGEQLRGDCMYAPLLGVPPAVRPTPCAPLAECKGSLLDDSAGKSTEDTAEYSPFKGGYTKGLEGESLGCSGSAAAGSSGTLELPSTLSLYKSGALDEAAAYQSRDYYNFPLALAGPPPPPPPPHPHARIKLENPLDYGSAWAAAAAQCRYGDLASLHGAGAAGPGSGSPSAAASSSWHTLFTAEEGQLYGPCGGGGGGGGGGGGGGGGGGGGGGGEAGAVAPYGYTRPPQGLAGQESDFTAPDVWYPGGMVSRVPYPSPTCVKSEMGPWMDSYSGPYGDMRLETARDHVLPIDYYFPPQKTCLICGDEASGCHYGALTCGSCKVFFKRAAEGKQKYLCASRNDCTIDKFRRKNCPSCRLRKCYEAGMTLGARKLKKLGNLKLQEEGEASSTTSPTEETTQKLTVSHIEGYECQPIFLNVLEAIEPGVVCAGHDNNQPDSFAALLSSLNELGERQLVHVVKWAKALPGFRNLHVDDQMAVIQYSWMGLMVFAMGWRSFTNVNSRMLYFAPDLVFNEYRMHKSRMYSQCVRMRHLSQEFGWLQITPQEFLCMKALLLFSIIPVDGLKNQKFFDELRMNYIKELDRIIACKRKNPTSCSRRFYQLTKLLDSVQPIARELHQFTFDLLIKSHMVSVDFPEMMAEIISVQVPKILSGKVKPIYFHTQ
As to the kind of experiment: Luciferase reporter assay in PC3 cells, wild type AR. Type of series: cell-based. The note with it: read-out: IC50 toward FL-AR^WT. How it is done:
Detection principles: A reporter system for detecting the activities of firefly luciferase. To quantitatively detect the interaction between transcription factors and target promoters, the fluorescent intensities are detected to quantitatively evaluate the activities of firefly luciferase.
Methods: PC3 cells (no endogenous AR) treated with DMEM media supplemented with 5% CSS for 48 hours. Then, the PC3 cells (1.2×10^4/well) were seeded into 96-well plates. After 16 hours, the PC3 cells were transfected with 20 ng/well plasmid and incubated for 20 min at room temperature. After 1 day incubation, the media in the wells was replaced, followed by the addition of various concentrations of compounds. After 48 hours, the culture medium was discarded and the cells were washed with 100 μL PBS, followed by addition of 30 μL 1×PLB and the 96-well plates was shaken on a shaker for 20 min to ensure complete lysis of the cells. Then, the cell lysis supernatant (20 μL/well) was transferred to a white opaque 96-well, and addition of 30 μL Luciferase Assay Reagent II to each well. Then, the fluorescent intensities of firefly luciferase were evaluated. Afterwards, 30 μL Stop&Glo Reagant was added to the wells, and the fluorescent intensities of […] evaluated.
(A reporter such as luciferase makes a cellular process visible.)

A further series deals with T2, AR-LBD dimer (Homo sapiens, UniProt P10275).
T2 sequence (P10275 669-900 limits assumed): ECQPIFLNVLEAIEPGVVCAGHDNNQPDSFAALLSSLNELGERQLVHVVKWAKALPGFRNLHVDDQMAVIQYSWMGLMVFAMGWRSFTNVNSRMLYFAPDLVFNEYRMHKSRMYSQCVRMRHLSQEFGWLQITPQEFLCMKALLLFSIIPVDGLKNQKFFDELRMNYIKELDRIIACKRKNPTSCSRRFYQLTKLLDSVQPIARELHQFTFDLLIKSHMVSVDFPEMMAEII
The series can be described thus: Small-angle X-ray scattering (SAXS) of AR-LBD dimerization. The conditions noted are these: AR-LBD 35 μM, DHT 10 μM, Enzalutamide 105 μM, A-1 105 μM. From the text: Detection principles: SAXS is a vital technique for detecting conformational changes of biomacromolecule by quantitatively evalucate the overall dimension and shape silhouette of biomacromolecule.
The SAXS scattering signal were collected for 20 frames (1 second exposure time) using the BL19U2 beamline. The ATSAS software were applied to analysis the results.

A further series has as its target T3, AR-LBD protein (Homo sapiens, UniProt P10275).
T3 construct: The biotinylated AR-LBD protein was dissolved in the buffer
T3 sequence (P10275 669-900 limits assumed): T2 sequence (P10275 669-900 limits assumed)
The series can be described thus: Biolayer interferometry (BLI) direct interaction. Type of series: binding. The note with it: A-1 2.06-500 μM, biotinylated AR-LBD. How it is done:
Detection principles: The BLI technique can detect the interactions by monitoring the change of the interference spectrum in the sensor surface. BLI can quantitatively determine the binding and dissociation processes of a ligand to the target loaded sensor, by analyzing changes in the interference spectrum. Therefore, the direct interaction between ligand and target protein can be quantitatively detected.
Methods: The biotinylated AR-LBD protein was dissolved in the buffer of phosphate-buffered saline with 1% dimethyl sulfoxide. 200 μL of AR-LBD protein in the buffer was loaded onto sensors and equilibrated for 300 seconds. The kinetics of association between AR-LBD and A-1 were determined by soaking the AR-LBD loaded sensors into wells containing different concentrations of A-1 for 300 seconds, followed by soaking the sensors in the buffer for 180 seconds allow for dissociation. Finally, the ForteBio data analysis software was applied to calculate the kinetic binding constants (Ka, Kd, KD).
For orientation: BLI is a label-free optical method that tracks binding on a fibre tip over time.

The target in another series is T4, LBP of AR-LBD (Rattus norvegicus, UniProt P15207).
T4 construct: a buffer containing AR-LBD (His-GST) and fluorescence ligand; purchased
T4 sequence (P15207 651-882 limits assumed): T2 sequence (P10275 669-900 limits assumed)
The series can be described thus: AR competitive ligand binding assay (PolarScreen Androgen Receptor Competitor Assay Kit, fluorescence polarization). The note with it: A-1 at 12.5 μM-200 μM; 4 hours incubation. How it is done: Detection principles: The binding affinities of compounds to the LBP of AR-LBD were evaluated using PolarScreen™ Androgen Receptor Competitor Assay Kit. […] The addition of a test compound to a microporous plate containing the binary complex would reduce fluorescence polarization values if the compound could target LBP of AR-LBD by competing the fluorescence ligand.
After 4 hours incubation in darkness at room temperature, the fluorescence polarization values were determined using a multifunctional microplate reader.
(In general: Fluorescence polarisation rises when a labelled molecule tumbles more slowly, as on binding a larger partner.)

The test system of series [1] is LNCaP xenograft. The note with it: mouse, in vivo.
Protocol: (§1) Methods: LNCaP cells were injected to the Male CB17 SCID mice (6-8 weeks old). Once tumor size reached target value, the mice were randomized into three groups with 6-8 mice per group. […] The mice weight and tumor volume were periodically recorded. Finally, the tumors were harvested.
Series [2] has as its system LNCaP xenograft. The series can be described thus: LNCaP xenograft model in vivo. The note with it: intratumor injection 2.5 mg/kg/week.
Protocol: as §1

The results in this text go back to patent US20240376091A1, “THIADIAZOLEAMIDE DERIVATIVES AND THEIR APPLICATIONS” (ZHEJIANG UNIVERSITY, priority 2021, published 2024).

Each structure is given as a SMILES string.

Broadly, the IC50 is the point on the concentration scale where inhibition reaches its midpoint. One may read the Kd as a measure of binding affinity in units of concentration. Read a low Kd as a tighter complex.

Turning to `CC(=O)Cc1nsc(NC(=O)c2cc(-c3cccc(C(F)(F)F)c3)oc2C)n1` [Compound A-1, 2-Methyl-N-(3-(2-oxopropyl)-1,2,4-thiadiazol-5-yl)-5-(3-(trifluoromethyl)phenyl)furan-3-carboxamide], the IC50 at FL-AR^WT is 1.84 µM. The AR-LBD dimerization result at AR-LBD dimer is listed as “inhibits AR-LBD dimerization”. The compound further came in with a Kd at AR-LBD protein of 143 µM. Also, on LBP of AR-LBD, the “binding to the AR LBP” value is recorded as “did not bind to the AR LBP”. Moreover, the mortality entry with LNCaP xenograft [1] is recorded as “no mortality”. Also, in the series on LNCaP xenograft [2], the body weight result is reported as “no significant loss of body weight”; the “tumor growth inhibition, tumor volume” value is recorded as “much superior to that for Enzalutamide”; the “tumor growth inhibition, tumor weight” value was “much superior to that for Enzalutamide”.
